Data as given in US12558362B2, “Use of cannabidiol in the treatment of seizures associated with rett syndrome” (JAZZ PHARMACEUTICALS RESEARCH UK LIMITED, priority 2020, dated 2026).
“Also recorded” adds a separate entry of the source.

Assays:
[1] = system: patients diagnosed with Rett syndrome; assay: Open label, expanded-access program of botanically derived purified CBD: seizure frequency recorded in caregiver diaries relative to baseline; format: in vivo, human; parameters: Reduction in tonic seizures over the treatment period / Reduction in focal seizures with impairment over the treatment period / Reduction in absence seizures over the treatment period: concentration or dose not given beside the values; Seizure frequency, tonic / Seizure frequency, tonic-clonic / Seizure frequency, absence / Seizure frequency, focal with impairment: unit not given here; details: for Seizure frequency, focal with impairment: baseline 3.2
Procedure: Subjects were required to be on one or more AEDs at stable doses for a minimum of two weeks prior to baseline and to have stable vagus nerve stimulation (VNS) settings and ketogenic diet ratios for a minimum of four weeks prior to baseline.
Patients were administered botanically derived purified CBD in a 100 mg/mL sesame oil-based solution which was titrated to an initial dose of between 5 and 25 milligrams per kilogram per day (mg/kg/day) in two divided doses. Doses were then increased weekly by 5 mg/kg/day to a goal of 25 mg/kg/day where required.
A maximum dose of 50 mg/kg/day could be utilised for patients who were tolerating the medication but had not achieved seizure control; these patients had further weekly titration by 5 mg/kg/day.
There were three patients in this study, and each received CBD for various durations of time. Modifications were made to concomitant AEDs as per clinical indication.
Seizure frequency, intensity, and duration were recorded by caregivers in a diary during a baseline period of at least 28 days. Changes in seizure frequency relative to baseline were calculated after at least 2 weeks and at defined timepoints of treatment.
Patients may be defined as responders if they had more than 50% reduction in seizure frequency compared to baseline. The percent change in seizure frequency was calculated as follows: […]
The percent change of seizure frequency may be calculated for any time interval where seizure number has been recorded. For the purpose of this example the percent change of seizure frequency for the end of the treatment period was calculated as follows:
[formula] Results Patient Description

[2] = system: patients with Dravet and Lennox-Gastaut syndrome; details: cited from earlier work
[3] = system: mouse model of Rett syndrome; details: cited from earlier work
[4] = Patient 2, treated for 84 weeks
[5] = printed Patient 2 (follows Table 2C of Patient 3), treated for 36 weeks

C=C(C)[C@@H]1CCC(C)=C[C@H]1c1c(O)cc(CCCCC)cc1O [CBD, cannabidiol]
Seizure frequency, tonic-clonic ([1]; Patient 1, 2 weeks, CBD 5.0 mg/kg/day, baseline 10.0): 26.0
Seizure frequency, tonic ([1]; Patient 1, 2 weeks, CBD 5.0 mg/kg/day, baseline 22.4): 22.0
Seizure frequency, tonic-clonic ([1]; Patient 1, 4 weeks, CBD 10.0 mg/kg/day, baseline 10.0): 21.4
Seizure frequency, tonic ([1]; Patient 1, 4 weeks, CBD 10.0 mg/kg/day, baseline 22.4): 38.0
Seizure frequency, tonic-clonic ([1]; Patient 1, 8 weeks, CBD 20.0 mg/kg/day, baseline 10.0): 14.0
Seizure frequency, tonic ([1]; Patient 1, 8 weeks, CBD 20.0 mg/kg/day, baseline 22.4): 28.0
Seizure frequency, tonic-clonic ([1]; Patient 1, 12 weeks, CBD 25.0 mg/kg/day, baseline 10.0): 12.0
Seizure frequency, tonic ([1]; Patient 1, 12 weeks, CBD 25.0 mg/kg/day, baseline 22.4): 28.0
Seizure frequency, tonic-clonic ([1]; Patient 1, 16 weeks, CBD 15.0 mg/kg/day, baseline 10.0): 22.0
Seizure frequency, tonic ([1]; Patient 1, 16 weeks, CBD 15.0 mg/kg/day, baseline 22.4): 14.0
Seizure frequency, tonic-clonic ([1]; Patient 1, 24 weeks, CBD 15.0 mg/kg/day, baseline 10.0): 12.0
Seizure frequency, tonic ([1]; Patient 1, 24 weeks, CBD 15.0 mg/kg/day, baseline 22.4): 8.0
Seizure frequency, tonic-clonic ([1]; Patient 1, 36 weeks, CBD 15.0 mg/kg/day, baseline 10.0): 20.0
Seizure frequency, tonic ([1]; Patient 1, 36 weeks, CBD 15.0 mg/kg/day, baseline 22.4): 20.0
Reduction in tonic seizures over the treatment period ([1]; Patient 1, treated for 36 weeks): 10.7%
Seizure frequency, absence ([1]; Patient 2, 8 weeks, CBD 20.0 mg/kg/day, baseline 0): 1.0
Seizure frequency, focal with impairment ([1]; Patient 2, 8 weeks, CBD 20.0 mg/kg/day): 0
Seizure frequency, tonic ([1]; Patient 2, 8 weeks, CBD 20.0 mg/kg/day, baseline 5.6): 3.0
Seizure frequency, absence ([1]; Patient 2, 12 weeks, CBD 20.0 mg/kg/day, baseline 0): 0
Seizure frequency, focal with impairment ([1]; Patient 2, 12 weeks, CBD 20.0 mg/kg/day): 0
Seizure frequency, tonic ([1]; Patient 2, 12 weeks, CBD 20.0 mg/kg/day, baseline 5.6): 1.6
Seizure frequency, absence ([1]; Patient 2, 16 weeks, CBD 20.0 mg/kg/day, baseline 0): 0
Seizure frequency, focal with impairment ([1]; Patient 2, 16 weeks, CBD 20.0 mg/kg/day): 0
Seizure frequency, tonic ([1]; Patient 2, 16 weeks, CBD 20.0 mg/kg/day, baseline 5.6): 2.0
Seizure frequency, absence ([1]; Patient 2, 24 weeks, CBD 20.0 mg/kg/day, baseline 0): 0.8
Seizure frequency, focal with impairment ([1]; Patient 2, 24 weeks, CBD 20.0 mg/kg/day): 0
Seizure frequency, tonic ([1]; Patient 2, 24 weeks, CBD 20.0 mg/kg/day, baseline 5.6): 0.4
Seizure frequency, absence ([1]; Patient 2, 36 weeks, CBD 20.0 mg/kg/day, baseline 0): 0.4
Seizure frequency, focal with impairment ([1]; Patient 2, 36 weeks, CBD 20.0 mg/kg/day): 0
Seizure frequency, tonic ([1]; Patient 2, 36 weeks, CBD 20.0 mg/kg/day, baseline 5.6): 0.4
Seizure frequency, absence ([1]; Patient 2, 48 weeks, CBD 20.0 mg/kg/day, baseline 0): 0
Seizure frequency, focal with impairment ([1]; Patient 2, 48 weeks, CBD 20.0 mg/kg/day): 0
Seizure frequency, tonic ([1]; Patient 2, 48 weeks, CBD 20.0 mg/kg/day, baseline 5.6): 0.8
Seizure frequency, absence ([1]; Patient 2, 60 weeks, CBD 20.0 mg/kg/day, baseline 0): 0
Seizure frequency, focal with impairment ([1]; Patient 2, 60 weeks, CBD 20.0 mg/kg/day): 0
Seizure frequency, tonic ([1]; Patient 2, 60 weeks, CBD 20.0 mg/kg/day, baseline 5.6): 1.4
Seizure frequency, absence ([1]; Patient 2, 72 weeks, CBD 21.3 mg/kg/day, baseline 0): 0.4
Seizure frequency, focal with impairment ([1]; Patient 2, 72 weeks, CBD 21.3 mg/kg/day): 0
Seizure frequency, tonic ([1]; Patient 2, 72 weeks, CBD 21.3 mg/kg/day, baseline 5.6): 0.4
Seizure frequency, absence ([1]; Patient 2, 84 weeks, CBD 20.0 mg/kg/day, baseline 0): 0.4
Seizure frequency, focal with impairment ([1]; Patient 2, 84 weeks, CBD 20.0 mg/kg/day): 0
Seizure frequency, tonic ([1]; Patient 2, 84 weeks, CBD 20.0 mg/kg/day, baseline 5.6): 0.4
Reduction in focal seizures with impairment over the treatment period [1, 4]: 100%
Reduction in tonic seizures over the treatment period [1, 4]: 92.9%
Seizure frequency, tonic-clonic ([1]; Patient 3, 4 weeks, CBD 25.0 mg/kg/day, baseline 4.0): 4.0
Seizure frequency, absence ([1]; Patient 3, 4 weeks, CBD 25.0 mg/kg/day, baseline 8.0): 1.0
Seizure frequency, tonic ([1]; Patient 3, 4 weeks, CBD 25.0 mg/kg/day, baseline 16.0): 2.0
Seizure frequency, tonic-clonic ([1]; Patient 3, 12 weeks, CBD 25.0 mg/kg/day, baseline 4.0): 4.0
Seizure frequency, absence ([1]; Patient 3, 12 weeks, CBD 25.0 mg/kg/day, baseline 8.0): 0
Seizure frequency, tonic ([1]; Patient 3, 12 weeks, CBD 25.0 mg/kg/day, baseline 16.0): 1.0
Seizure frequency, tonic-clonic ([1]; Patient 3, 16 weeks, CBD 25.0 mg/kg/day, baseline 4.0): 6.0
Seizure frequency, absence ([1]; Patient 3, 16 weeks, CBD 25.0 mg/kg/day, baseline 8.0): 0
Seizure frequency, tonic ([1]; Patient 3, 16 weeks, CBD 25.0 mg/kg/day, baseline 16.0): 4.0
Seizure frequency, tonic-clonic ([1]; Patient 3, 24 weeks, CBD 25.0 mg/kg/day, baseline 4.0): 8.0
Seizure frequency, absence ([1]; Patient 3, 24 weeks, CBD 25.0 mg/kg/day, baseline 8.0): 4.0
Seizure frequency, tonic ([1]; Patient 3, 24 weeks, CBD 25.0 mg/kg/day, baseline 16.0): 0
Seizure frequency, tonic-clonic ([1]; Patient 3, 36 weeks, CBD 25.0 mg/kg/day, baseline 4.0): 6.0
Seizure frequency, absence ([1]; Patient 3, 36 weeks, CBD 25.0 mg/kg/day, baseline 8.0): 1.0
Seizure frequency, tonic ([1]; Patient 3, 36 weeks, CBD 25.0 mg/kg/day, baseline 16.0): 4.0
Reductions in seizures over the period of treatment, overall ([1]; all three patients, range over patients and seizure types): 10.7-100.0%
Decrease of seizure frequency rates: tonic, tonic-clonic, absence and focal seizures with impairment ([1]; conclusion, all patients): 11-100.0%
Seizure freedom, focal seizures with impairment ([1]; one patient (patient 2)): became seizure free of focal seizures with impairment
Reduction in absence seizures over the treatment period [1, 5]: 87.5%
Reduction in tonic seizures over the treatment period [1, 5]: 75%
Reduction in tonic seizures, all three patients ([1]; range over the three patients): 11-93%
Reduction of seizures associated with Rett syndrome ([1]; summary statement of the program): significantly reduce the number of seizures; also recorded: significant reduction in specific seizure types
Effect on frequency of tonic, absence and focal seizures with impairment ([1]; three patients with Rett syndrome): effective in reducing the frequency
Efficacy in randomized control trials [2]: showed efficacy

C=C(C)[C@@H]1CCC(C)=C[C@H]1c1c(O)cc(CCC)cc1O [CBDV, cannabidivarin]
Behavioural alterations [3]: rescue the behavioural alterations
